According to ChEMBL document CHEMBL1201862, “PubChem BioAssay data set” (2004):
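The compound was tested at five concentrations on cells cultured in 96-well plates, with a 48-hour exposure period. Here, GI50 denotes the concentration required for 50% inhibition of growth.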 Active and inactive are the calls of the source. Rule as the data show it: active = GI50 up to about 1.1 µM and inactive = higher.

Assays:
Assay in all cases: NCI-60 cell line screen, 48 h
[1] = tested on: HCT-15
[2] = tested on: MDA-MB-231
[3] = tested on: RXF 393
[4] = tested on: K562
[5] = tested on: DU-145
[6] = tested on: MCF7
[7] = tested on: RPMI-8226
[8] = tested on: A498
[9] = tested on: OVCAR-3
[10] = tested on: SN12C
[11] = tested on: HT-29
[12] = tested on: LOX IMVI
[13] = tested on: HOP-92
[14] = tested on: SK-MEL-28
[15] = tested on: HCC 2998
[16] = tested on: NCI-H226
[17] = tested on: SK-MEL-5
[18] = tested on: SNB-75
[19] = tested on: U-251
[20] = tested on: CAKI-1

**Q.** What does the source list for `C/C(=N/NC(=S)Nc1ccccc1C)c1ccccn1`?
**A.** GI50 [1]: 0.0228 µM; GI50 [2]: < 0.0216 µM (active); GI50 [3]: 0.682 µM (active); GI50 [4]: < 0.0145 µM (active); GI50 [5]: 1.63 µM (inactive); GI50 [6]: 0.0164 µM (active); GI50 [7]: < 0.0188 µM (active); GI50 [8]: 1.67 µM (inactive); GI50 [9]: 0.0144 µM (active); GI50 [10]: 0.269 µM (active); GI50 [11]: 0.0726 µM (active); GI50 [12]: < 0.0149 µM (active); GI50 [13]: 1.09 µM (active); GI50 [14]: 1.08 µM (active); GI50 [15]: 6.27 µM (inactive); GI50 [16]: 0.075 µM (active); GI50 [17]: 0.0766 µM (active); GI50 [18]: 0.583 µM (active); GI50 [19]: 0.0571 µM (active)

**Q.** Which results are given for `O=C(NCCCl)Nc1cccnc1`?
**A.** GI50 [1]: 22.3 µM; GI50 [2]: 17.4 µM (inactive); GI50 [3]: 0.951 µM (active); GI50 [4]: 50 µM (inactive); GI50 [5]: 15.4 µM (inactive); GI50 [6]: 41.3 µM (inactive); GI50 [7]: 2.84 µM (inactive); GI50 [8]: 24.7 µM (inactive); GI50 [9]: 26.5 µM (inactive); GI50 [10]: 21.5 µM (inactive); GI50 [11]: 18.4 µM (inactive); GI50 [20]: 21.5 µM (inactive); GI50 [12]: 19.3 µM (inactive); GI50 [13]: 19.9 µM (inactive); GI50 [14]: 21.2 µM (inactive); GI50 [15]: 17.7 µM (inactive); GI50 [16]: 15.7 µM (inactive); GI50 [17]: 5.19 µM (inactive); GI50 [18]: 29.6 µM (inactive); GI50 [19]: 16.7 µM (inactive)

**Q.** For `CN(C)/C=N/S(=O)(=O)c1nn2c(C=O)c(-c3ccc([N+](=O)[O-])cc3)nc2s1`, which GI50 [1] is on record?
**A.** 2.94 µM

**Q.** What about the GI50 [2] of the same compound?
**A.** 12.4 µM (inactive)

**Q.** What about the GI50 [3] of the same compound?
**A.** 5.62 µM (inactive)

**Q.** And the GI50 [4]?
**A.** 2.43 µM (inactive)

**Q.** And the GI50 [5]?
**A.** 6.67 µM (inactive)

**Q.** And the GI50 [6]?
**A.** 4.68 µM (inactive)

**Q.** And the GI50 [7]?
**A.** 2.39 µM (inactive)

**Q.** And the GI50 [8]?
**A.** 27.6 µM (inactive)

**Q.** What about the GI50 [9] of the same compound?
**A.** 4.11 µM (inactive)

**Q.** And the GI50 [10]?
**A.** 5.42 µM (inactive)

**Q.** And the GI50 [11]?
**A.** 1.54 µM (inactive)

**Q.** What about the GI50 [20] of the same compound?
**A.** 0.627 µM (active)

**Q.** And the GI50 [12]?
**A.** 2.93 µM (inactive)

**Q.** What about the GI50 [13] of the same compound?
**A.** 12.6 µM (inactive)

**Q.** And the GI50 [14]?
**A.** 4.23 µM (inactive)

**Q.** What about the GI50 [15] of the same compound?
**A.** 17.4 µM (inactive)

**Q.** What about the GI50 [16] of the same compound?
**A.** 19.6 µM (inactive)

**Q.** And the GI50 [17]?
**A.** 3.3 µM (inactive)

**Q.** What about the GI50 [18] of the same compound?
**A.** 23.6 µM (inactive)

**Q.** And the GI50 [19]?
**A.** 8.69 µM (inactive)

**Q.** `COc1ccc2c(c1)CCCN2S(=O)(=O)c1ccccc1[N+](=O)[O-]` was tested. Which GI50 [1] did it give?
**A.** 14.3 µM

**Q.** What about the GI50 [2] of the same compound?
**A.** 53.5 µM (inactive)

**Q.** And the GI50 [3]?
**A.** 25.6 µM (inactive)

**Q.** What about the GI50 [4] of the same compound?
**A.** 5.89 µM (inactive)

**Q.** What about the GI50 [5] of the same compound?
**A.** 74.5 µM (inactive)

**Q.** What about the GI50 [6] of the same compound?
**A.** 21.6 µM (inactive)

**Q.** What about the GI50 [7] of the same compound?
**A.** 29.4 µM (inactive)

**Q.** What about the GI50 [8] of the same compound?
**A.** 33.4 µM (inactive)

**Q.** What about the GI50 [9] of the same compound?
**A.** 47.8 µM (inactive)

**Q.** And the GI50 [10]?
**A.** 65.6 µM (inactive)

**Q.** And the GI50 [11]?
**A.** 21.4 µM (inactive)

**Q.** What about the GI50 [20] of the same compound?
**A.** > 89.5 µM (inactive)

**Q.** What about the GI50 [12] of the same compound?
**A.** 32.4 µM (inactive)

**Q.** What about the GI50 [13] of the same compound?
**A.** 42.6 µM (inactive)

**Q.** And the GI50 [14]?
**A.** 68.5 µM (inactive)

**Q.** What about the GI50 [15] of the same compound?
**A.** 35.6 µM (inactive)

**Q.** What about the GI50 [16] of the same compound?
**A.** 44.2 µM (inactive)

**Q.** And the GI50 [17]?
**A.** 41.8 µM (inactive)

**Q.** And the GI50 [18]?
**A.** 24.1 µM (inactive)

**Q.** And the GI50 [19]?
**A.** 24.3 µM (inactive)

**Q.** Which results are given for `Cn1c(=O)c(-c2ccccc2)c(O)c2ccccc21`?
**A.** GI50 [1]: > 100 µM; GI50 [2]: > 100 µM (inactive); GI50 [3]: > 100 µM (inactive); GI50 [4]: > 100 µM (inactive); GI50 [5]: > 100 µM (inactive); GI50 [6]: > 100 µM (inactive); GI50 [7]: > 100 µM (inactive); GI50 [8]: > 100 µM (inactive); GI50 [9]: > 100 µM (inactive); GI50 [10]: > 100 µM (inactive); GI50 [11]: > 100 µM (inactive); GI50 [20]: > 100 µM (inactive); GI50 [12]: > 100 µM (inactive); GI50 [13]: > 100 µM (inactive); GI50 [14]: > 100 µM (inactive); GI50 [15]: > 100 µM (inactive); GI50 [16]: > 100 µM (inactive); GI50 [17]: > 100 µM (inactive); GI50 [18]: 0.92 µM (active); GI50 [19]: > 100 µM (inactive)

**Q.** Which GI50 [1] does the source give for `Cc1ccc2nnc(NS(=O)(=O)c3cc(C)c(Cl)cc3S)n2n1` here?
**A.** > 100 µM

**Q.** What about the GI50 [2] of the same compound?
**A.** > 100 µM (inactive)

**Q.** What about the GI50 [3] of the same compound?
**A.** > 100 µM (inactive)

**Q.** And the GI50 [4]?
**A.** > 100 µM (inactive)

**Q.** What about the GI50 [5] of the same compound?
**A.** > 100 µM (inactive)

**Q.** What about the GI50 [6] of the same compound?
**A.** > 100 µM (inactive)

**Q.** And the GI50 [7]?
**A.** > 100 µM (inactive)

**Q.** What about the GI50 [8] of the same compound?
**A.** > 100 µM (inactive)

**Q.** And the GI50 [9]?
**A.** > 100 µM (inactive)

**Q.** And the GI50 [10]?
**A.** > 100 µM (inactive)

**Q.** What about the GI50 [11] of the same compound?
**A.** > 100 µM (inactive)

**Q.** What about the GI50 [20] of the same compound?
**A.** > 100 µM (inactive)

**Q.** What about the GI50 [12] of the same compound?
**A.** > 100 µM (inactive)

**Q.** And the GI50 [13]?
**A.** > 100 µM (inactive)

**Q.** What about the GI50 [14] of the same compound?
**A.** > 100 µM (inactive)

**Q.** And the GI50 [15]?
**A.** > 100 µM (inactive)

**Q.** And the GI50 [16]?
**A.** > 100 µM (inactive)

**Q.** What about the GI50 [17] of the same compound?
**A.** > 100 µM (inactive)

**Q.** What about the GI50 [18] of the same compound?
**A.** > 100 µM (inactive)

**Q.** And the GI50 [19]?
**A.** > 100 µM (inactive)

**Q.** How did the GI50 [1] turn out when `COC(=O)c1ccc2c(c1)CC1(C2)Cc2ccccc2C1=O` (centres undefined) was run?
**A.** 36.2 µM

**Q.** And the GI50 [2]?
**A.** 22.7 µM (inactive)

**Q.** And the GI50 [3]?
**A.** 33.3 µM (inactive)

**Q.** And the GI50 [4]?
**A.** 30.3 µM (inactive)

**Q.** And the GI50 [5]?
**A.** 36.3 µM (inactive)

**Q.** What about the GI50 [6] of the same compound?
**A.** 22.9 µM (inactive)

**Q.** And the GI50 [7]?
**A.** 13.4 µM (inactive)

**Q.** What about the GI50 [8] of the same compound?
**A.** 37.6 µM (inactive)

**Q.** And the GI50 [9]?
**A.** 29.1 µM (inactive)

**Q.** And the GI50 [10]?
**A.** 25.9 µM (inactive)

**Q.** And the GI50 [11]?
**A.** 17.5 µM (inactive)

**Q.** What about the GI50 [20] of the same compound?
**A.** 34.7 µM (inactive)

**Q.** And the GI50 [12]?
**A.** 22.4 µM (inactive)

**Q.** And the GI50 [13]?
**A.** 18.1 µM (inactive)

**Q.** What about the GI50 [14] of the same compound?
**A.** 14.8 µM (inactive)

**Q.** What about the GI50 [15] of the same compound?
**A.** 54.5 µM (inactive)

**Q.** And the GI50 [16]?
**A.** 15.1 µM (inactive)

**Q.** What about the GI50 [17] of the same compound?
**A.** 17.9 µM (inactive)

**Q.** What about the GI50 [18] of the same compound?
**A.** 24.3 µM (inactive)

**Q.** And the GI50 [19]?
**A.** 34.2 µM (inactive)
